Data set [1] can be described thus: Gastrointestinal ulcer formation action (gastric ulceration). The following applies: rat, po. The protocol: Gastrointestinal ulcer formation action, which is a principal side effect of an acid anti-inflammatory drug, was investigated according to the method of Okabe et al [cf. […] The compounds of the present invention, IM, DF and acemethacin were suspended in 5% Tween-80 solution and administered orally 1 ml/100 g body weight to the rats, respectively. At 6 hrs after the administration, the state of glandstomach was observed by means of a dissecting microscope whether the ulcer having a diameter more than 1 mm was generated or not.

Data set [2] in a line: Rate of hydrolysis in rat plasma. It counts as in vitro ADME. The note with it: in 1 ml of plasma rat (37° C., incubation for 1 hr). The protocol: **in 1 ml of plasma rat (37° C., incubation for 1 hr)
The test system of the next data set is carrageenan edema. The experiment in a line: inhibition test of carrageenan edema employing a foot-pad edema method. The following applies: for ED50: Rattus norvegicus, male Wister rats, foot-pad edema, read-out: ED50 for inhibition for carrageenan edema; for anti-inflammatory activity compared with DF: relative to DF. It counts as in vivo, male Wister rats. The text has this:
Anti-inflammatory action was investigated according to the method of Winter et al [cf. Pro. Soc. Exp. Biol. Med., 111, 544 (1962)] by the inhibition test of carrageenan edema employing a foot-pad edema method using carrageenan as an irritating agent and male Wister rats weighing 130 to 170 g.
In general terms: In the carrageenan paw model, swelling and tenderness develop within hours.

A short description of a further data set: in vivo. The note with it: mouse, po.
Another data set has as its system ultraviolet erythema. As to the kind of experiment: inhibition action for ultraviolet erythema. It is filed as in vivo, male Hartley guinea pigs. The following applies: for 2 hs after the irradiation, Average ± standard error / 2 hs after the irradiation, Rate for inhibition: 2 hs after irradiation; for 2 hs after the irradiation, Average ± standard error / 2 hs after the irradiation, Rate for inhibition / 3 hs after the irradiation, Average ± standard error / 3 hs after the irradiation, Rate for inhibition / 5 hs after the irradiation, Average ± standard error / 5 hs after the irradiation, Rate for inhibition: guinea pigs; for 3 hs after the irradiation, Average ± standard error / 3 hs after the irradiation, Rate for inhibition: 3 hs after irradiation; for 5 hs after the irradiation, Average ± standard error / 5 hs after the irradiation, Rate for inhibition: 5 hs after irradiation. On the set-up: 2 hs after the irradiation, Average ± standard error / 3 hs after the irradiation, Average ± standard error / 5 hs after the irradiation, Average ± standard error: scale not given here; 2 hs after the irradiation, Rate for inhibition / 3 hs after the irradiation, Rate for inhibition / 5 hs after the irradiation, Rate for inhibition: unit not given here. The protocol: With respect to Compounds 1 to 3, 15 and 21 which are especially useful as an anti-inflammatory drug, IM and DF, inhibition action for ultraviolet erythema was investigated according to the method of Adames et al [cf. Nature, London, 181, 773 (1958)] using guinea pigs as follows: Male Hartley guinea pigs weighing 250 to 350 g were shaved at their sides the day before and two hrs before the ultraviolet irradiation. To the guinea pigs were administered orally Compounds 1 to 3, 15 and 21, IM and DF in amounts as described in Table 2, respectively. To the control group was administered orally only Tween-80. At 1 hr after the time of administration, the guinea pigs were irradiated at their shaved sides by ultraviolet beam for 40 seconds.
The reaction of the ultraviolet erythema was evaluated at 2 hrs, 3 hrs and 5 hrs after irradiation according to the method of Winder et al [cf. Arch. Int. Pharmacodyn., 116, 261 (1958)]. […] Compounds 1 and 2 show a duration of the pharmacological effect over 5 hrs, contrary to that IM has a duration of 2 hrs.

A value given as a limit tells only on which side of the number the result lay.

As a reminder, the ED50 is the dose that gives a 50% effect, or the effect in half of the subjects. What is called LD50 is the dose expected to kill half of the subjects tested. `COc1ccc2c(c1)c(CC(=O)OCC(=O)O)c(C)n2C(=O)c1ccc(Cl)cc1` [Acemethacin, acemethacin, reference compound]: the TD50 at 6 h in data set [1] (in vivo) is 17.5 mg/kg. In data set [2], this compound showed a metabolised at 1 h of 4.2%. In addition, the ED50 with carrageenan edema is 8.3 mg/kg. In the data set “in vivo”, this compound registered an LD50 of 45 mg/kg.
`C/C=C/C(=O)OCCOC(=O)Cc1c(C)n(C(=O)c2ccc(Cl)cc2)c2ccc(OC)cc12` [Compound 4]: the TD50 at 6 h in data set [1] turned out to be 40 mg/kg. For the same compound, in data set [2], the metabolised at 1 h came to 83%. Also, the ED50 in the data set on carrageenan edema was 15 mg/kg. Further, in “in vivo”, the LD50 is 85 mg/kg.
For the compound `COc1ccc2c(c1)c(CC(=O)OCCOC(=O)C=C(C)C)c(C)n2C(=O)c1ccc(Cl)cc1` [Compound 5, 2-(3,3-Dimethylacryloyloxy)ethyl[1-(p-chlorobenzoyl)-5-methoxy-2-methyl-3-indolyl]acetate], the TD50 at 6 h in data set [1] was found to be 40 mg/kg. The compound also registered a metabolised at 1 h in data set [2] of 75.3%. The ED50 with carrageenan edema was found to be 15 mg/kg. For the same compound, the LD50 in “in vivo” was found to be 62 mg/kg.
`CC=CC=CC(=O)OCCOC(=O)Cc1c(C)n(C(=O)c2ccc(Cl)cc2)c2ccc(OC)cc12` [Compound 6, 2-(2,4-Hexadienoyloxy)ethyl[1-(p-chlorobenzoyl)-5-methoxy-2-methyl-3-indolyl]acetate] showed a TD50 at 6 h in data set [1] of 40 mg/kg. In data set [2], this compound yielded a metabolised at 1 h of 69%. The ED50 with carrageenan edema came out at 13 mg/kg. For the same compound, in the data set “in vivo”, the LD50 stood at 85 mg/kg.
As for `COc1ccc2c(c1)c(CC(=O)OCCOC(=O)C=C(C)CCC=C(C)C)c(C)n2C(=O)c1ccc(Cl)cc1` [Compound 7, 2-(3,7-Dimethyl-2,6-octadienoyloxy)ethyl[1-(p-chlorobenzoyl)-5-methoxy-2-methyl-3-indolyl]acetate], in data set [1], the TD50 at 6 h is over 20 mg/kg. In data set [2], this compound showed a metabolised at 1 h of 60.5%. Besides, the ED50 with carrageenan edema was over 20 mg/kg. Besides, the LD50 in “in vivo” came to 780 mg/kg.
`COc1ccc2c(c1)c(CC(=O)OC(C)OC(C)=O)c(C)n2C(=O)c1ccc(Cl)cc1` (centres unmarked) [Compound 8, 1-(Acetoxy)ethyl[1-(p-chlorobenzoyl)-5-methoxy-2-methyl-3-indolyl]acetate] displayed a TD50 at 6 h in data set [1] of 20 mg/kg. This compound registered a metabolised at 1 h in data set [2] of 99.8%. For the same compound, the ED50 in the data set on carrageenan edema was 6 mg/kg. In “in vivo”, this compound came in with an LD50 of 65 mg/kg.
In the case of `CCC(=O)OC(C)OC(=O)Cc1c(C)n(C(=O)c2ccc(Cl)cc2)c2ccc(OC)cc12` (centres unmarked) [Compound 9, 1-(Propionyloxy)ethyl[1-(p-chlorobenzoyl)-5-methoxy-2-methyl-3-indolyl]acetate], the TD50 at 6 h in data set [1] worked out at 20 mg/kg. In addition, the metabolised at 1 h in data set [2] is 97.3%. Also, the ED50 in the data set with carrageenan edema worked out at 6 mg/kg. In addition, the LD50 in the data set “in vivo” worked out at 65 mg/kg.
For `COc1ccc2c(c1)c(CC(=O)OC(C)OC(=O)C=C(C)C)c(C)n2C(=O)c1ccc(Cl)cc1` (centres unmarked) [Compound 11, 1-(3,3-Dimethylacryloyloxy)ethyl[1-(p-chlorobenzoyl)-5-methoxy-2-methyl-3-indolyl]acetate], in that order: 10 mg/kg, 85.4%, 15 mg/kg and 45 mg/kg.
On to `CC=CC=CC(=O)OC(C)OC(=O)Cc1c(C)n(C(=O)c2ccc(Cl)cc2)c2ccc(OC)cc12` (centres unmarked) [Compound 12, 1-(2,4-Hexadienoyloxy)ethyl[1-(p-chlorobenzoyl)-5-methoxy-2-methyl-3-indolyl]acetate], for which, in data set [1], the TD50 at 6 h was over 20 mg/kg. The compound further showed a metabolised at 1 h in data set [2] of 80.4%. Moreover, the ED50 with carrageenan edema is over 20 mg/kg. This compound also returned an LD50 in “in vivo” of 640 mg/kg.
For the compound `C/C=C/C(=O)OCOC(=O)Cc1ccccc1Nc1c(Cl)cccc1Cl` [Compound 13, Crotonoyloxymethyl-2-(2,6-dichloroanilino)-phenylacetate], in data set [1], the TD50 at 6 h worked out at 30 mg/kg. The compound further returned a metabolised at 1 h in data set [2] of 89.7%. The ED50 with carrageenan edema is under 30 mg/kg. In the data set “in vivo”, this compound displayed an LD50 of 400 mg/kg.
`CC(C)=CC(=O)OCOC(=O)Cc1ccccc1Nc1c(Cl)cccc1Cl` [Compound 14, 3,3-Dimethylacryloyloxymethyl-2-(2,6-dichloroanilino)phenylacetate]: in data set [1], the TD50 at 6 h came out at 30 mg/kg. Also, the metabolised at 1 h in data set [2] turned out to be 83.4%. The median effective dose (ED50) with carrageenan edema was under 30 mg/kg. Further, the LD50 in the data set “in vivo” is 455 mg/kg.
The compound `CC=CC=CC(=O)OCOC(=O)Cc1ccccc1Nc1c(Cl)cccc1Cl` [Compound 15, 2,4-Hexadienoyloxymethyl-2-(2,6-dichloroanilino)phenylacetate] registered a metabolised at 1 h in data set [2] of 80.5%. For the same compound, in the data set on carrageenan edema, the ED50 amounted to 20 mg/kg and the “anti-inflammatory activity compared with DF” value is recorded as “almost equal anti-inflammatory activity to DF”. For the same compound, in the data set on ultraviolet erythema (3 mg/kg orally), the “2 hs after the irradiation, Average ± standard error” value amounted to 1.17 ± 0.167; the “2 hs after the irradiation, Rate for inhibition” value is on record as 56.2; the “3 hs after the irradiation, Average ± standard error” value turned out to be 2.0 ± 0.258; the “3 hs after the irradiation, Rate for inhibition” value amounted to 29.3. Also, in the data set with ultraviolet erythema (3 mg/kg orally), the “5 hs after the irradiation, Average ± standard error” value is listed as 3.00 ± 0 and the “5 hs after the irradiation, Rate for inhibition” value worked out at 0. For the same compound, in the data set on ultraviolet erythema (10 mg/kg orally), the “2 hs after the irradiation, Average ± standard error” value is given as 0.67 ± 0.211; the “2 hs after the irradiation, Rate for inhibition” value was found to be 74.9; the “3 hs after the irradiation, Average ± standard error” value is 2.3 ± 0.333; the “3 hs after the irradiation, Rate for inhibition” value worked out at 18.7. In the data set on ultraviolet erythema (10 mg/kg orally), the “5 hs after the irradiation, Average ± standard error” value was 2.83 ± 0.167 and the “5 hs after the irradiation, Rate for inhibition” value was found to be 0. Also, in the data set on ultraviolet erythema (relative to IM and DF), the “inhibition effect for ultraviolet erythema compared with IM and DF” value was “equal inhibition effect for ultraviolet erythema to that of IM and DF”. The compound further came in with an LD50 in the data set “in vivo” of 500 mg/kg.
In data set [2], `CC(=O)OCCOC(=O)Cc1ccccc1Nc1c(Cl)cccc1Cl` [Compound 16, 2-(Acetoxy)ethyl-2-(2,6-dichloroanilino)-phenylacetate] came in with a metabolised at 1 h of 93.7%. For the same compound, in the data set on carrageenan edema, the ED50 came out at 20 mg/kg and the “anti-inflammatory activity compared with DF” value is given as “almost equal anti-inflammatory activity to DF”. This compound also came in with an LD50 in “in vivo” of 610 mg/kg.
On to `CC(C)=CC(=O)OCCOC(=O)Cc1ccccc1Nc1c(Cl)cccc1Cl` [Compound 17, 2-(3,3-Dimethylacryloyloxy)ethyl-2-(2,6-dichloroanilino)phenylacetate], for which the TD50 at 6 h in data set [1] was 30 mg/kg. Further, the metabolised at 1 h in data set [2] was found to be 78.4%. Moreover, in the data set on carrageenan edema, the ED50 amounted to 30 mg/kg. The LD50 in “in vivo” came out at 400 mg/kg.
The compound `CC(=O)OC(C)OC(=O)Cc1ccccc1Nc1c(Cl)cccc1Cl` (centres unmarked) [Compound 18, 1-(Acetoxy)ethyl-2-(2,6-dichloroanilino)-phenylacetate] returned a TD50 at 6 h in data set [1] of 30 mg/kg. This compound also showed a metabolised at 1 h in data set [2] of 96.1%. Moreover, in the data set with carrageenan edema, the ED50 was 20 mg/kg and the “anti-inflammatory activity compared with DF” value is recorded as “almost equal anti-inflammatory activity to DF”. In the data set “in vivo”, this compound had an LD50 of 295 mg/kg.
In turn, `C/C=C/C(=O)OC(C)OC(=O)Cc1ccccc1Nc1c(Cl)cccc1Cl` (centres unmarked) [Compound 19, 1-(Crotonoyloxy)ethyl-2-(2,6-dichloroanilino)phenylacetate] came in with a TD50 at 6 h in data set [1] of 30 mg/kg. In data set [2], this compound returned a metabolised at 1 h of 86%. Also, the ED50 in the data set on carrageenan edema is under 30 mg/kg. The same compound had an LD50 in the data set “in vivo” of 380 mg/kg.
`CC(C)=CC(=O)OC(C)OC(=O)Cc1ccccc1Nc1c(Cl)cccc1Cl` (centres unmarked) [Compound 20, 1-(3,3-Dimethylacryloyloxy)ethyl-2-(2,6-dichloroanilino)phenylacetate] returned a TD50 at 6 h in data set [1] of 30 mg/kg. In data set [2], this compound came in with a metabolised at 1 h of 80.3%. Further, in the data set on carrageenan edema, the ED50 is 20 mg/kg and the “anti-inflammatory activity compared with DF” value is “almost equal anti-inflammatory activity to DF”. In the data set “in vivo”, this compound showed an LD50 of 460 mg/kg.

For the origin of these results see patent publication US4603217A, “Ester substituted alkyl-2-(2,6-dichloroanilino)phenyl acetates” (priority 1983, dated 1986).
